“Also recorded” adds a separate entry of the source.

The subject of data set [1] is NF-κB. Nature of the data set: EMSA of NF-κB binding activity in cultured primary cortical neurons. It is filed as cell-based, rat. The protocol: Cerebral cortices were removed from embryonic day 18 Sprague-Dawley rats (Harlan, Indianapolis, Ind.). Cells were dissociated as described previously (Mattson et al., 1995, J. Neurochem. 65:1740-1751.) and were seeded into polyethyleneimine-coated 60 mm culture dishes containing Eagle's Minimum Essential Medium supplemented with 26 mM NaHCO3, 40 mM glucose, 20 mM KCl, 1 mM sodium pyruvate, 10% (v/v) heat-inactivated fetal bovine serum (Sigma, St. Louis, Mo.), and 0.001% gentamycin sulfate. After a 3-5 h incubation period to allow for cell attachment, the medium was replaced with 2 ml of Neurobasal Medium with B27 supplements (GIBCO Life Technologies, Grand Island, N.Y.). […] Experimental treatments were performed on 7-to-9-day-old neuronal cultures in which there were approximately 5% contaminating glial cells.
Total cell extracts were prepared as described (Baeuerle and Baltimore, 1988, Cell 53:211-217). Briefly, cells were harvested, washed twice with ice-cold PBS and lysed for 30 min at 4° C. in Totex buffer (20 mM HEPES, pH 7.9, 350 mM NaC1, 20% glycerol, 1% NP-40, 1 mM MgC12, 0.5 mM EDTA, 0.1 mM EGTA, 5 mM DTT, 0.1% PMSF, 1% aprotinin, 4 μg/ml leupeptin). Samples were centrifuged at 14,000× g for 10 min and aliquots of supernatant were collected and stored at −70° C. until taken for assay. The protein content of the extract (supernatant) was measured by Bradford method (BIO-RAD Laboratories, Ercules, Calif., USA).
After 20 min at room temperature, reaction products were separated on a 7% non-denaturing polyacrylamide gel. Competition experiments were performed by incubating extracts with labeled oligonucleotide probe in the presence of 100-fold molar excess unlabeled NF-KB or CREB oligonucleotide. To characterize the NF-KB complexes, supershift assays were performed. Extracts were preincubated for 45 min at room temperature with antibodies recognizing either p50 or p65 sub-units of NF-κB (Santa Cruz Biotechnology, Santa Cruz, Calif.) or c-Fos (Oncogene Research Products, Cambridge, Mass.). The mixtures were further incubated with ^32P-labeled probe and resolved as described above. Radioactivity of dried gels was detected by exposure to Kodak X-Omat film and images on the developed film were scanned into a computer using a UMAX 1200s scanner. Densitometry was performed using Scion Image software (Scion Inc., Frederick, Md.). Paint Shop Pro software (JASC Inc. Minneapolis, Minn.) was used for preparation of the final figures.
The possible involvement of endoplasmic reticulum pools of intracellular calcium regulated by IP3 receptors in controlling basal levels of NF-κB was investigated using Xestospongin C (XeC) a specific membrane permeable modulator of IP3-mediated Ca^2+release (Gafni et al., 1997, Neuron 19:723-733; Hu et al., 1999, J. Biol. Chem. 274:33995-33998), and thapsigargin (Tg), a specific inhibitor of ER calcium/ATPase (Thastrup et al., 1990, Proc. Natl. Acad. Sci. USA 87:2466-2470; Davidson and Varhol, 1995, J. Biol. Chem. 270:11731-11734.). Cultured primary cortical neurons were treated with either 1 μM XeC, 100 nM Tg or vehicle for 6 h and protein extracts were analyzed for NF-κB binding activity by EMSA electrophoresis.

The subject of data set [2] is IP3 receptors on microsomes. The data set is described as follows: Microsome extract (MSE) effect on cytoplasmic NF-κB binding activity. Format: biochemical, rat. The protocol: Cerebral cortices from adult female Sprague-Dawley rats were homogenized (20 strokes at 300 rpm) with a Teflon homogenizer in ice-cold buffer containing 1 mM EDTA, 0.32 M sucrose, 0.1 mM dithiothreitol and 1 mM HEPES as described previously (Chen et al., 1998, Diabetes 47:874-81) and cytoplasmic and microsome fractions were isolated by differential centrifugation. Briefly, tissue fragments and cellular debris were removed by centrifugation at 500 g for 10 min and supernatants were centrifuged at 20,000 g for 20 min to pellet intact mitochondria and nuclei. The supernatant was then centrifuged at 100,000 g for 1 h in order to obtain the cytoplasmic fraction and the microsomal pellet enriched in endoplasmic reticulum and golgi membranes. Microsome extracts (MSE) were prepared by suspending microsomes in 1:100 v/v ice-cold buffer and centrifuging at 100,000× g for 1 hr. Microsomes were then re-suspended in 1:2 v/v volume buffer and treated as described below. At the end of the treatment, the suspension was centrifuged at 100,000 g for 1 h, and supernatants were used as MSE. For experiments involving incubation of MSE with cytoplasmic extract, 3 μl of MSE were added to 10 μl cytoplasmic extract and mixtures were incubated at room temperature for 1 h.
[…] After 1 h at room temperature, samples were examined for NF-κB binding activity.
Indeed, the role calcium plays in this paradigm seems to be as an intraluminal signal.

The subject of data set [3] is [Ca^2+]i. The data set is described as follows: Intracellular calcium increase caused by glutamate in neurons. Format: cell-based. The settings on record: XeC treatment; data not shown. From the text: Therefore, all inducers of NFκB tested here have in common the ability to initiate calcium release through ER IP3 receptors, either through increasing intracellular calcium, activating production of IP3, or both.

Data set [4] relates to IP3 receptor. The settings on record: Gafni et al., 1997; cited from earlier work.
Data set [5] has as its system cardiac cells. The settings on record: Hu et al., 1999, cited from earlier work.

As to `C1CCC[C@H]2CCCN3CC[C@@H](CCCCCC[C@@H]4CCCN5CC[C@@H](CC1)O[C@@H]45)O[C@@H]23` [XeC, Xestospongin C], the “effect on TNFα-induced NF-κB activation” value in data set [1] (1 μM XeC 30 min prior to 100 ng/ml TNFα for 6 h) is given as “completely abolished; also recorded: significantly inhibited”. Further, the “effect on thapsigargin-induced elevation in NF-κB binding” value in data set [1] (1 μM XeC pretreatment, 100 nM Tg, 6 h) is on record as “completely abolished the elevation”. Moreover, the “effect on glutamate-induced elevation in NF-κB binding” value in data set [1] (1 μM XeC pretreatment, 20 μM glutamate, 6 h) was “completely abolished the elevation; also recorded: NF-κB binding below that of control; also recorded: totally abolish this induction”. Besides, in data set [1] (cultured primary cortical neurons, 6 h, 1 μM XeC or 100 nM Tg, EMSA), the “basal NF-κB binding activity relative to control levels” value is recorded as “statistically significant (p<0.05) reduction; also recorded: can inhibit basal levels of NF-κB binding”. Besides, the “NF-κB stimulating activity of microsomes pretreated then given calcium” value in data set [2] (XeC pretreatment followed by calcium) is recorded as “produced no NF-κB stimulating activity”. Further, the “effect of microsome pretreatment on IP3-induced NF-κB stimulating properties of MSE” value in data set [2] (XeC pretreatment of microsomes) was “completely abolished this effect”. In data set [3], the “increase in [Ca^2+]i caused by glutamate” value is given as “did not erase the increase”. Further, the “block of IP3-mediated calcium release” value in data set [4] was “potent blockers”. Moreover, in data set [5], the “frequency of calcium oscillations” value is reported as “decreased the frequency”. Besides, the NF-κB activity entry in data set [5] (histamine stimulation) is “parallel decrease”.

The record behind these values is patent publication US20020107193A1, “Therapeutic uses for IP3 receptor-mediated calcium channel modulators” (priority 2000, published 2002).
